Assay [1] concerns rat dural blood flow. Put plainly: Decrease of dural blood flow induced by S1P. In kind it is in vivo. Particulars: 10 mg/kg through femoral vein; S1P 300 μg/kg into cisterna. An excerpt: Rat (CD(SD)IGS, male, Charles River Japan Inc., 10 weeks old-13 weeks old, 450-520 g) was anesthetized by injection of urethane (1.2 g/kg, s.c.), placed in the femoral vein with catheter (polyethylene tube SP10; I.D. 0.28 mm, O.D. 0.61 mm: Natsume Seisakusho Co. Ltd.) for compounds administration, and then blood flow to brain through only vertebral artery was made to happen by tying both sides of common carotid arteries. Next, the scalp was cut open and the head region was exposed in order to measure dural blood flow and administer into cisterna. In addition, the trachea was placed with catheter (polyethylene tube; size 7.9: Hibiki) and it connected to the artificial respirator. The measurement of dural blood flow was performed to transmit with 1a ser light to skull using Moon Laser Doppler Imager (Moor LDI) [about 11cm distant from measuring object, about 150 dots both of XY measurement resolution, scanning about 2.8×2.8 cm area (150dots/2.8 cm)]. In addition, measurement condition involved in flux calculation (FLUX; relative value) such as sensitivity -gain etc., was integrated within all experiment. The images of blood flow were captured through the capture software, moor LDI Measurement V3.08, and image data was treated with analyzed software, moor LDI Image Processing V3.08. […]

Assay [2] concerns SD rat. As to the kind of experiment: Increase of rat blood pressure by S1P. Format: in vivo. Particulars: anesthetized male SD rat, intraperitoneally injected. As to the method: Male SD Rat (8 weeks old-10 weeks old) was anesthetized by injection of pentobarbital sodium (50 mg/mL/kg), after midline incision in the cervical region, trachea was exposed by exfoliation of tracheal muscle layer and cannula made of polyethylene was inserted into trachea. Next, catheter made of polyethylene was inserted into the common carotid artery and the common jugular vein. Catheter inserted into the common carotid artery was connected to the piezotransducer and the blood pressure was recorded on the recorder through strain compression amplifier. After the above mentioned operation was finished, in the case of the spinal chord was broken, the spinal chord was broken by insertion of stainless pole into the spinal chord cavity. After the spinal chord was broken, tracheal cannula was immediately connected into the artificial breathing device for small animals and artificial ventilation was performed under the conditions of a ventilatory volume 6 mL/kg and velocity 60 times/min. After then, S1P was administered and we confirmed blood pressure was increased. […] As a result, the compound (3) inhibited the increase of blood pressure by S1P.

“Also recorded” adds a separate entry of the source.

As for `Cc1nn(C)c2nc(NNC(=O)Nc3cc(Cl)nc(Cl)c3)cc(C(C)C)c12` [compound (3), N-(2,6-dichloro-4-piridinyl)-2-(4-isopropyl-1,3-dimethyl-1H-pyrazolo[3,4-b]pyridin-6-yl)hydrazinecarboxamide], the “inhibition of decrease of dural blood flow by S1P” value in assay [1] is “inhibited; also recorded: suppression”. In addition, the “inhibition of the increase of blood pressure by S1P” value in assay [2] is on record as “inhibited”.

The values above are taken from US8765783B2, “Pharmaceutical composition for treatment of disease due to vascular constriction or vasodilation” (Ono Pharmaceuticals Co., Ltd., priority 2002, dated 2014).
